In publication PMC10139140, “Synthesis of Novel 2-(Cyclopentylamino)thiazol-4(5H)-one Derivatives with Potential Anticancer, Antioxidant, and 11β-HSD Inhibitory Activities” (International Journal of Molecular Sciences, 2023):

Tests used:
[1] = tested on: human colon carcinoma (Caco-2); assay: MTS metabolic activity assay, Caco-2 cells; assay type: cell-based; conditions: 72 h
How it was run: (§1)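 Following 24 h attachment, the cells received compounds at several concentrations for 72 h at 37 °C, 5% CO2. MTS reagent then stood for 3 h before readings at 590 nm and 620 nm; results normalised to untreated cells as 100%.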

[2] = tested on: human pancreatic carcinoma (PANC-1); assay: MTS metabolic activity assay, PANC-1 cells; assay type: cell-based; conditions: Homo sapiens, 72 h, read-out: Cell metabolic activity (MTS), % of untreated control
How it was run: as §1

[3] = molecular target: T1, 11β-HSD2 (Homo sapiens, UniProt P80365); assay: Inhibition of 11β-HSD2 (cortisol to cortisone, human microsomes, cortisol ELISA); assay type: biochemical; conditions: 2.5 h, 37 °C
T1 construct: Human liver microsomes were used as a source of 11β-HSD2 enzyme; tissue XenoTech Lot No. 1710160; host or cells: human kidney microsomes, mixed gender (method text says human liver microsomes)
T1 sequence (P80365 1-405): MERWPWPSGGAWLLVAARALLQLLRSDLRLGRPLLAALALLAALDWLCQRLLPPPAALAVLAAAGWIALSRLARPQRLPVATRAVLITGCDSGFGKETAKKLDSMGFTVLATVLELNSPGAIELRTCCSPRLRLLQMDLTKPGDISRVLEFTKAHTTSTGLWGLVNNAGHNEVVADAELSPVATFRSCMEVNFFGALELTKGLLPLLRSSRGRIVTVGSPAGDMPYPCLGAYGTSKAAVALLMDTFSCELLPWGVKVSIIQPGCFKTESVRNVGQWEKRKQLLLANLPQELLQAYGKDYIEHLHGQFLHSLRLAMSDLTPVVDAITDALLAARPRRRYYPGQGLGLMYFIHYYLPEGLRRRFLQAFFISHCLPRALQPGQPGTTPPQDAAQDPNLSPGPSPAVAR
Procedure: The resulting solution with a final volume of 100 µL was incubated for 2.5 h at 37 °C. […] The level of unreacted cortisol was measured by a commercially available ELISA kit.

[4] = tested on: human breast carcinoma (MDA-MB-231); assay: MTS metabolic activity assay, MDA-MB-231 cells; assay type: cell-based; conditions: Homo sapiens, 72 h, read-out: Cell metabolic activity (MTS), % of untreated control
How it was run: as §1

[5] = tested on: skin melanoma (SK-MEL-30); assay: MTS metabolic activity assay, SK-MEL-30 cells; assay type: cell-based; conditions: Homo sapiens, 72 h, read-out: Cell metabolic activity (MTS), % of untreated control
How it was run: as §1

[6] = tested on: BJ cells; assay: MTS metabolic activity assay, BJ cells; assay type: cell-based; conditions: Homo sapiens, 72 h, read-out: Cell metabolic activity (MTS), % of untreated control
How it was run: as §1

[7] = tested on: glioma (U-118 MG); assay: MTS metabolic activity assay, U-118 MG cells; assay type: cell-based; conditions: Homo sapiens, U-118-MG, U118-MG, 72 h, read-out: Cell metabolic activity (MTS), % of untreated control
How it was run: as §1

[8] = molecular target: T2, 11β-HSD1 (Homo sapiens, UniProt P28845); assay: Inhibition of 11β-HSD1 (cortisone to cortisol, human liver microsomes, cortisol ELISA); assay type: biochemical
T2 construct: Human liver microsomes were used as a source of 11β-HSD1 enzyme; tissue XenoTech Lot No. 1410013; host or cells: pooled human liver microsomes, mixed gender
T2 sequence (P28845 whole entry): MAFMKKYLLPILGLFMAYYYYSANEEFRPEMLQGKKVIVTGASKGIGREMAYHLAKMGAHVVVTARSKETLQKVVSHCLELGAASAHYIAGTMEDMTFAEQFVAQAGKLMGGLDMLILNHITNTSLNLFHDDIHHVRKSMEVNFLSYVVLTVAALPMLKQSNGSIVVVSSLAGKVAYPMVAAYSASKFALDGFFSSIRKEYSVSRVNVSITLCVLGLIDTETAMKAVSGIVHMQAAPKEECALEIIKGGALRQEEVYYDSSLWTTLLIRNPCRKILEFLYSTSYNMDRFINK
How it was run: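 Human liver microsomal conversion of cortisone to cortisol, incubated 2.5 h at 37 °C and stopped with 18β-glycyrrhetinic acid. Cortisol was quantified by ELISA against inhibitor-free controls.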

inhibition at 10 µM [3]: 46.3 ± 1.22%
IC50 [8]: 1.55 ± 0.1 µM
inhibition at 10 µM ([8]; 10 µM, 2.5 h, 37 °C): 71.2 ± 4.77%
SMILES: O=C1N=C(NC2CCCC2)SC12CCC2 [Compound 3i, 6-(cyclopentylamino)-5-thia-7-azaspiro[3.4]oct-6-en-8-one]
cell viability, decreases to ([1]; Caco-2, higher concentrations, range given for the most effective substances together): 20–65%
viability at 10 µM ([1]; Homo sapiens, Caco-2, 10 µM, read-out: Cell metabolic activity (MTS), % of untreated control): 92.2%
viability at 20 µM ([1]; Homo sapiens, Caco-2, 20 µM, read-out: Cell metabolic activity (MTS), % of untreated control): 91.2%
viability at 50 µM ([1]; Homo sapiens, Caco-2, 50 µM, read-out: Cell metabolic activity (MTS), % of untreated control): 92.9%
viability at 100 µM ([1]; Homo sapiens, Caco-2, 100 µM, read-out: Cell metabolic activity (MTS), % of untreated control): 82.5%
viability at 200 µM ([1]; Homo sapiens, Caco-2, 200 µM, read-out: Cell metabolic activity (MTS), % of untreated control): 77.5%
viability at 300 µM ([1]; Homo sapiens, Caco-2, 300 µM, read-out: Cell metabolic activity (MTS), % of untreated control): 69.8%
viability at 500 µM ([1]; Homo sapiens, Caco-2, 500 µM, read-out: Cell metabolic activity (MTS), % of untreated control): 61.5%
viability at 10 µM ([2]; PANC-1, 10 µM): 95.4%
viability at 20 µM ([2]; PANC-1, 20 µM): 93.3%
viability at 50 µM ([2]; PANC-1, 50 µM): 97.3%
viability at 100 µM ([2]; PANC-1, 100 µM): 91.4%
viability at 200 µM ([2]; PANC-1, 200 µM): 91.2%
viability at 300 µM ([2]; PANC-1, 300 µM): 79.7%
viability at 500 µM ([2]; PANC-1, 500 µM): 66.6%
viability at 10 µM ([4]; MDA-MB-231, 10 µM): 87.2%
viability at 20 µM ([4]; MDA-MB-231, 20 µM): 91.2%
viability at 50 µM ([4]; MDA-MB-231, 50 µM): 89.6%
viability at 100 µM ([4]; MDA-MB-231, 100 µM): 85.1%
viability at 200 µM ([4]; MDA-MB-231, 200 µM): 72.5%
viability at 300 µM ([4]; MDA-MB-231, 300 µM): 69.3%
viability at 500 µM ([4]; MDA-MB-231, 500 µM): 58.7%
viability at 10 µM ([5]; SK-MEL-30, 10 µM): 88.1%
viability at 20 µM ([5]; SK-MEL-30, 20 µM): 94%
viability at 50 µM ([5]; SK-MEL-30, 50 µM): 97.3%
viability at 100 µM ([5]; SK-MEL-30, 100 µM): 99%
viability at 200 µM ([5]; SK-MEL-30, 200 µM): 101%
viability at 300 µM ([5]; SK-MEL-30, 300 µM): 102%
viability at 500 µM ([5]; SK-MEL-30, 500 µM): 103%
viability at 10 µM ([6]; 10 µM): 102%
viability at 20 µM ([6]; 20 µM): 104%
viability at 50 µM ([6]; 50 µM): 105%
viability at 100 µM ([6]; 100 µM): 111%
viability at 200 µM ([6]; 200 µM): 116%
viability at 300 µM ([6]; 300 µM): 121%
viability at 500 µM ([6]; 500 µM): 115%
viability at 10 µM ([7]; 10 µM): 107%
viability at 20 µM ([7]; 20 µM): 108%
viability at 50 µM ([7]; 50 µM): 111%
viability at 100 µM ([7]; 100 µM): 109%
viability at 200 µM ([7]; 200 µM): 112%
viability at 300 µM ([7]; 300 µM): 109%
viability at 500 µM ([7]; 500 µM): 108%
